In US4228187A, “Alkyl and cycloalkylthiophenylalkylaminoalkanols, their salts and the preparation thereof” (priority 1973, dated 1980):
Entries after “also recorded” stand apart in the source; their conditions may differ. Like-named read-outs stand apart in the source and are kept apart here.

Assays:
[1] = test system: occluding thrombosis of the femoral artery; assay: Prevention of arterial thrombosis in dogs; assay type: in vivo, dog; settings: for n dogs with occluding thrombosis: controls 10 of 16, * α = 0.05; for incidence of occluding thrombosis of the femoral artery (in words): suloctidil 5 times 5 mg/kg i.m., acetylsalicylic acid 5 times 100 mg/kg p.o.
Method: In animals, 1-(4-isopropylthiophenyl)-2-n-octylaminopropanol reduces thromboformation in arteries and veins.
Thrombosis was induced in the femoral
artery of anesthetized dogs by a 30 min perfusions, in a
catheterized area of the vessel, of a solution of pronase.
Drugs administrations were made at 24 h intervals, for 5 days
the last dosage being given 30 min before anesthesia.

[2] = test system: Hist.; assay: Antispasmodic activity, Hist.
[3] = test system: BaCl2; assay: Antispasmodic activity, BaCl2
[4] = DL50 mouse p.o.; settings: in vivo, po, limits of reliability (p : 0.95) in brackets
Description: (1) the limits of reliability (p : 0.95) are given in brackets.

[5] = test system: guinea pig atria's; assay: Protective activity against anoxia (guinea pig atria); design: key: scale: + = 10 to 20% increase in survival time; settings: increase in survival time
Description: (5) guinea pig atria's;
+ = increase in survival time of 10 to 20%

[6] = test system: spontaneously hypertensive rat; assay: Antihypertensive activity (spontaneously hypertensive rat); assay type: in vivo; settings: 15 mg/kg per os
Method: (3) spontaneously hypertensive rat; 15 mg/kg per os;
± reduction of systolic pressure up to 10 mm of Hg
+ reduction of systolic pressure of 10 to 20 mm Hg
++ reduction of systolic pressure of at least 20 mm of Hg

[7] = test system: Ac.chol.; assay: Antispasmodic activity, Ac.chol.
[8] = test system: platelet functions; assay: Platelet antiaggregating properties in vitro and in vivo
[9] = test system: lipoproteinlipases; assay: Inhibitory effect on lipoproteinlipases; assay type: biochemical
[10] = test system: platelets emboli triggered by ADP; assay: Platelets emboli triggered by ADP in mice or rats; assay type: in vivo
Description: Since platelet aggregation is considered to be of paramount importance in thrombus formation, this anti-platelet activity of 1-(4-isopropylthiophenyl)-2-n-octylaminopropanol (suloctidil) is likely to explain its anti-thrombotic properties.

[11] = Blood viscosity and plasma fibrinogen in geriatric patients (pilot studies); assay type: in vivo, human; settings: long-term treatment
[12] = test system: vascular contractile cell; assay: Vascular antispasmodic activity: inhibition of induced vasoconstrictions in vitro and in vivo
[13] = test system: peripheral vasodilatatory activity; assay: Vasodilatory effect after intraarterial injection in dog; assay type: in vivo
Method: (1) intraarterial injection in dog (5 animals) 10, 20 and 30 μg/kg.
(2) maximum vasodilatory effect in mm of Hg.
(3) and (4) expressed in seconds.

[14] = test system: catecholamines and methylxanthine induced lipolysis; assay: Antilipolytic activity in vitro in rat epididymal fat; assay type: cell-based
[15] = Prothrombine levels in patients under oral anti-coagulants therapy; assay type: in vivo, human; settings: 900 mg daily with long-term oral anti-coagulants
Method: (§1) After a single oral intake of 200 mg the effect lasts for at least 6 h. Repeated administration of 1-(4-isopropylthiophenyl)-2-n-octylaminopropanol seems to optimalize its anti-platelet activity. […] Moreover, investigations on its mode of action indicate that the mechanism involved are quantitatively and qualitatively different from these of the other known anti-platelet agents.

[16] = test system: peripheral and cerebral circulations; assay: Blood flow in peripheral and cerebral circulations after i.v. or oral administration; assay type: in vivo; settings: mice or dogs
[17] = test system: ADP, L-epinephrine, collagen and Thrombofax induced aggregation; assay: Ex-vivo platelet aggregation after oral administration to healthy volunteers; design: species or system human
Method: as §1

[18] = test system: vasoconstrictions induced by norepinephrine and angiotensine in the femoral circulation; assay: Inhibition of vasoconstrictions in the femoral circulation of dogs; design: species or system dog; settings: in vivo, FIG. 1: i.a. 10 μg/kg/min, listed as suloctidil
Description: The vasoconstrictions are induced by i.a. norepinephrine (n=10) or angiotensine (n=8) during solvent (C) or drug (T) infusion.
Vertical bars are standard errors of the means and * or *** indicate statistically significant differences from the corresponding control values at the thresholds α=0.05 and 0.001 respectively.

[19] = Bleeding time in man; assay type: in vivo, human; settings: repeated administration
Method: as §1

[20] = test system: thrombosis of the hepatic veins; assay: Prevention of deep veins thrombosis in rats; assay type: in vivo, rat; settings: for n rats with score 2: control 1; for n rats with score 3: control 2; for n rats with score 1: control 12, * α = 0.05; for n rats with score 0: control 13, ** α = 0.01; for thrombosis of the hepatic veins (in words): rats fed hyperlipidemic diet 3 months, endotoxin
Method: (see table VI given below).
Thrombosis in the hepatic veins were in-
duced in rats fed an hyperlipidemic diet for 3 months by i.v.
injection of endotoxin (lipopolysaccharide B from Salmonella
Sulcoctidil was administered into the diet. The importance of the
thrombosis assessed by scoring the subsequent red
hepatic infarcts according to their number and surface.

[21] = test system: experimental type II hyperlipidemia; assay: Experimental type II hyperlipidemia in monkeys; assay type: in vivo, monkey
[22] = test system: cholesterol biosynthesis; assay: Inhibition of cholesterol biosynthesis in vitro (rat liver); assay type: cell-based; settings: for inhibition at 100 µM / inhibition at 10 µM: Rattus norvegicus, rat liver, mean; for inhibition at 100 µM: 10^-4 M; for inhibition at 10 µM: 10^-5 M; for inhibition of cholesterol biosynthesis (in words): in vitro
Description: |Inhibition of cholesterol biosynthesis in vitro (rat liver). In- |hibitory effect of suloctidil and clofibrate on the incorpora- |tion of 1-^14 [NT] and 2-^14 C-mevalonate (MVA). |are mean values and range, expressed in % of inhibition. Unless |otherwise stated, n = 3.

[23] = AA, read-out: Inhibition of incorporation of 1-^14 C-acetate (AA)
[24] = MVA, read-out: Inhibition of incorporation of 2-^14 C-mevalonate (MVA)

CC(=O)Oc1ccccc1C(=O)O [Acetylsalicylic acid, reference compound]
n dogs with occluding thrombosis ([1]; 5 × 100 mg/kg p.o., n = 10): 1
incidence of occluding thrombosis of the femoral artery (in words) [1]: also effective in these conditions

CCCCNC(CC)C(O)c1ccc(SC)cc1 (stereo not shown) [No 17]
Antispasmodic activity CE 100, Hist. [2]: 1000 μ g γ 60 ml
Antispasmodic activity CE 100, BaCl2 [3]: 1000 μ g γ 60 ml
LD50 [4]: 122 mg/kg
Protective activity against anoxia [5]: 0
Anti-hypertensive activity [6]: + (reduction of systolic pressure of 10 to 20 mm Hg)
Antispasmodic activity CE 100, Ac.chol. [7]: 1000 μ g γ 60 ml

CCCCCCCCNC(C)C(O)c1ccc(SC(C)C)cc1 (stereo not shown) [No 2, 1-(4-isopropylthiophenyl)-2-n-octylaminopropanol]
Antispasmodic activity CE 100, Hist. [2]: 100 μ g γ 60 ml
Antispasmodic activity CE 100, BaCl2 [3]: 100 μ g γ 60 ml
platelet antiaggregating properties [8]: potent platelet antiaggregating properties
platelet antiaggregating properties ([8]; listed as suloctidil): platelet anti-aggregating properties
direct inhibitory effect on lipoproteinlipases [9]: direct inhibitory effect on the activity of different lipoproteinlipases
activity compared with acetyl salicyclic acid ([10]; at the same dose): as active as acetyl salicyclic acid
formation of platelets emboli triggered by ADP ([10]; oral, mice or rats): blocked or decreased the formation of platelets emboli triggered by ADP
LD50 [4]: 3700 mg/kg
plasma fibrinogen levels [11]: parallel reduction of the plasma fibrinogen levels
reduction of blood hyperviscosity ([11]; therapeutic dosage regimen): about 10%
n dogs with occluding thrombosis ([1]; 5 × 5 mg/kg i.m., n = 16): 3
incidence of occluding thrombosis of the femoral artery (in words) [1]: significantly lower
vascular antispasmodic activity and vasodilating action [12]: potent vascular antispasmodic activity and vasodilating action
inhibition of vasoconstrictions ([12]; in vitro and in vivo, calcium, norepinephrine, 5-hydroxytryptamine and angiotensine): inhibits, in vitro and in vivo, vasocontrictions induced by various agents like calcium, norepinephrine, 5-hydroxytryptamine and angiotensine
peripheral vasodilatatory activity compared with papaverine [13]: greater degree of activity than papaverine
Amplitude (maximum vasodilatory effect) ([13]; 10 μg/kg): 42 mm of Hg
Duration of effect ([13]; 10 μg/kg): 226 s
Half-life (of vasodilatory effect) ([13]; 10 μg/kg): 1.57 min
Amplitude (maximum vasodilatory effect) ([13]; 20 μg/kg): 59 mm of Hg
Duration of effect ([13]; 20 μg/kg): 299 s
Half-life (of vasodilatory effect) ([13]; 20 μg/kg): 2.32 min
Amplitude (maximum vasodilatory effect) ([13]; 30 μg/kg): 67 mm of Hg
Duration of effect ([13]; 30 μg/kg): 390 s
Half-life (of vasodilatory effect) ([13]; 30 μg/kg): 2.63 min
antilipolytic activity [14]: potent antilipolytic activity
prothrombine levels [15]: does not markedly decrease prothrombine levels
increase in blood flow in peripheral and cerebral circulations [16]: increase in blood flow in both peripheral and cerebral circulations
inhibition of induced platelet aggregation ([17]; ex-vivo, single oral administration, 200 mg or more, healthy volunteers): strongly inhibits ADP, L-epinephrine, collagen and Thrombofax induced aggregation
duration of anti-aggregating effect ([17]; single oral intake of 200 mg): at least 6 h
Protective activity against anoxia [5]: 0
inhibition of vasoconstrictions in the femoral circulation [18]: potent inhibitor of vasoconstrictions; also recorded: more active than standard agents like papaverine and cinnarizine
Anti-hypertensive activity [6]: 0
Antispasmodic activity CE 100, Ac.chol. [7]: 100 μ g γ 60 ml
bleeding time [19]: does not prolong bleeding time in man
n rats with score 2 ([20]; 10 mg/kg/day in diet): 0
n rats with score 3 ([20]; 10 mg/kg/day in diet): 0
n rats with score 1 ([20]; 10 mg/kg/day in diet): 4
n rats with score 0 ([20]; 10 mg/kg/day in diet): 25
n rats with score 2 ([20]; 25 mg/kg/day in diet): 0
n rats with score 3 ([20]; 25 mg/kg/day in diet): 0
n rats with score 1 ([20]; 25 mg/kg/day in diet): 5
n rats with score 0 ([20]; 25 mg/kg/day in diet): 23
thrombosis of the hepatic veins (in words) [20]: protection is still conferred by a 10 mg/kg oral dose
thrombosis of the hepatic veins (in words) ([20]; listed as suloctidil): markedly less frequent and less developped
hypocholesterolemic and normolipoproteinemic effects [21]: hypocholesterolemic and "normolipoproteinemic" effects observed in vivo
inhibition at 100 µM [22, 23]: 49.4%
inhibition at 10 µM [22, 23]: 27.5%
inhibition at 100 µM [22, 24]: 25.9%
inhibition at 10 µM [22, 24]: 9.9%
inhibition of cholesterol biosynthesis (in words) [22]: strong inhibitor of cholesterol biosynthesis; also recorded: more specific than that of standard compounds like clofibrate
inhibition of cholesterol biosynthesis (in words) ([22]; listed as suloctidil): markedly inhibits the biosynthesis of cholesterol

CCCCCCCCNC(CC)C(O)c1ccc(SCC)cc1 (stereo not shown) [No 20]
Antispasmodic activity CE 100, Hist. [2]: 200 μ g γ 60 ml
Antispasmodic activity CE 100, BaCl2 [3]: 100 μ g γ 60 ml
LD50 [4]: ~2450 mg/kg
Protective activity against anoxia [5]: 0
Anti-hypertensive activity [6]: 0
Antispasmodic activity CE 100, Ac.chol. [7]: 100 μ g γ 60 ml

CCCCCCCCNC(C)C(O)c1ccc(SCC)cc1 (stereo not shown) [No 13]
Antispasmodic activity CE 100, Hist. [2]: 100 μ g γ 60 ml
Antispasmodic activity CE 100, BaCl2 [3]: 100 μ g γ 60 ml
LD50 [4]: 1750 mg/kg
Protective activity against anoxia [5]: 0
Anti-hypertensive activity [6]: ++ (reduction of systolic pressure of at least 20 mm of Hg)
Antispasmodic activity CE 100, Ac.chol. [7]: 200 μ g γ 60 ml

CCOC(=O)C(C)(C)Oc1ccc(Cl)cc1 [Clofibrate, reference compound]
inhibition at 100 µM [22, 23]: 47.4%
inhibition at 10 µM [22, 23]: 4.2%
